Consider two compounds from ChEMBL document CHEMBL1127930, “Design, synthesis and biological properties of structurally non-related endotoxin inhibitors” (Bioorg Med Chem Lett, 1994).

Each structure is given as a SMILES string.

The subject of the test is Escherichia coli. The test is described as follows: Compound was evaluated to inhibit the LAL response produced by two endotoxin units of Escherichia coli LPS. The class given is functional, organism-based.

Turning to `CCCCCCCCCCCCCC[N+](C)(C)C[C@@H]1OCO[C@H]1C[N+](C)(C)CCCCCCCCCCCCCC`, the Concentration is 75 µg/mL.
Consider `CCCCCCCCCCCCCC[N+](C)(C)C[C@@H]1OC(C)(C)O[C@H]1C[N+](C)(C)CCCCCCCCCCCCCC`, for which the Concentration was found to be 75 µg/mL.
